Reference: BindingDB's records for doi:10.1016/s0960-894x(98)00264-9 (Royal Danish School of Pharmacy, 1999)
pEC50: −log10 of the molar value.

Legend:
[1] = Compound was evaluated for agonistic activity against mGluR4a alpha metabotropic receptor subtype in rat cortical slice model
[2] = Compound was evaluated for agonistic activity against mGluR2 alpha metabotropic receptor subtype in rat cortical slice model

Row | SMILES | pEC50 [1] | pEC50 [2]
1 | CNC(C(=O)O)c1cc(=O)[nH]o1 (stereo unspecified) [(3-Hydroxy-isoxazol-5-yl)-methylamino-acetic acid] | < 3.00 | < 3.00
2 | O=C(O)C(NCc1ccccc1)c1cc(=O)[nH]o1 (stereo unspecified) [Benzylamino-(3-hydroxy-isoxazol-5-yl)-acetic acid] | < 3.00 | < 3.00
3 | CCNC(C(=O)O)c1cc(=O)[nH]o1 (stereo unspecified) [Ethylamino-(3-hydroxy-isoxazol-5-yl)-acetic acid] | < 3.00 | < 3.00
